Source: patent US8883782B2, “Spiro-tetracyclic ring compounds as beta-secretase modulators and methods of use” (Amgen Inc., priority 2010, dated 2014)
Where two headings read alike, the source gives them in different places.

Legend:
[1] = system: Aβ40 in conditioned medium of cells stably expressing Amyloid Precursor Protein (APP); assay: In vitro BACE cell-based assay (Aβ40 in conditioned medium, sandwich ELISA); conditions: read-out: HEK cell assay
In short: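 Step two: 10-point compound titration added, starting 100 μM or 10 μM, 0.1% DMSO. Step three: medium Aβ40 measured by ELISA, capture 3 h and detection 2 h at 4° C, TRF read.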

[2] = target: Beta Secretase enzyme (BACE) (Homo sapiens, UniProt P56817); assay: In vitro enzymatic BACE FRET (fluorescence resonance energy transfer) assay; format: biochemical; conditions: average IC50, enzyme assay; read-out: BACE 1 FRET assay
In short: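 Enzyme activity was measured at pH 4.2 (0.05 M acetate, 10% DMSO final, 100 uM genapol) by cleavage of a 50 nM quenched fluorogenic peptide. After one hour, Tris was added to neutralise the pH and fluorescence was recorded.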

[3] = Homo sapiens, HEK293, average IC50, HEK cells
[4] = Homo sapiens, HEK293, average IC50

Beta Secretase enzyme (BACE), sequence (P56817 46-501, species assumed): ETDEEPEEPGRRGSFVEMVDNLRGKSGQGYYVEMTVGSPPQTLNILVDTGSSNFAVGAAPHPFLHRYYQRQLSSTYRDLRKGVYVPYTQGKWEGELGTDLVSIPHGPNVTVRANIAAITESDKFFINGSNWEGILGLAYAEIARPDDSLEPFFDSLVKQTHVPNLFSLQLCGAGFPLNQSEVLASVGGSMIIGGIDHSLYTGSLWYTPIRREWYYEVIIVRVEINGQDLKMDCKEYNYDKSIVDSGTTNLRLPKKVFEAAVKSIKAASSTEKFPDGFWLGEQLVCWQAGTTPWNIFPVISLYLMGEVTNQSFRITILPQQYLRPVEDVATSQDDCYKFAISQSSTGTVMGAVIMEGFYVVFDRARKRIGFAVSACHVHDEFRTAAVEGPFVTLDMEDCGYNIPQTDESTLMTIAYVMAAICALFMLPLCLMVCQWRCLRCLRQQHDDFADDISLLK

Cn1cc(-c2cc(F)c3c(c2)[C@]2(COC(N)=N2)c2cc(OCC4(C)COC4)ccc2O3)cn1 [Example 444, (4S)-4′-fluoro-7′-((3-methyl-3-oxetanyl)methoxy)-2′-(1-methyl-1H-pyrazol-4-yl)spiro[1,3-oxazole-4,9′-xanthen]-2-amine]
IC50 [1, 3]: 38.6 nM | IC50 [2]: 20 nM

NC1=N[C@@]2(CO1)c1cc(OCCCc3ccccc3)ccc1Oc1ncc(-c3cccnc3)cc12 [Example 981, (5S)-7-(3-phenylpropoxy)-3-(3-pyridinyl)spiro[chromeno[2,3-b]pyridine-5,4′-[1,3]oxazol]-2′-amine]
IC50 [1, 4]: 262 nM | IC50 [2]: 22.2 nM

Cc1cc(-c2ccc3c(c2)[C@@]2(COC(N)=N2)c2cc(C4=CCOCC4)cnc2O3)cnc1F [Example 467, (5S)-3-(3,6-dihydro-2H-pyran-4-yl)-7-(6-fluoro-5-methyl-3-pyridinyl)spiro[chromeno[2,3-b]pyridine-5,4′-[1,3]oxazol]-2′-amine]
IC50 [1, 3]: 50.8 nM | IC50 [2]: 20.8 nM

Cc1cc(-c2cc3c(cn2)Oc2ccc(-c4cccnc4F)cc2[C@@]32CSC(N)=N2)ccn1 [Example 934, (5S)-7-(2-fluoro-3-pyridinyl)-3-(2-methyl-4-pyridinyl)spiro[chromeno[2,3-c]pyridine-5,4′-[1,3]thiazol]-2′-amine]
IC50 [1, 3]: 5 nM | IC50 [2]: 1 nM

CC(C)(C)C#Cc1ccc2c(c1)[C@@]1(COC(N)=N1)c1cc(N3CCOCC3)cnc1O2 [Example 464, (5S)-7-(3,3-dimethyl-1-butyn-1-yl)-3-(4-morpholinyl)spiro[chromeno[2,3-b]pyridine-5,4′-[1,3]oxazol]-2′-amine]
IC50 [1, 3]: 69 nM | IC50 [2]: 12.8 nM

NC1=N[C@@]2(CO1)c1cc(-c3cccnc3)ncc1Oc1c(F)cc(C3=CCOCC3)cc12 [Example 307, (5S)-7-(3,6-dihydro-2H-pyran-4-yl)-9-fluoro-3-(3-pyridinyl)spiro[chromeno[2,3-c]pyridine-5,4′-[1,3]oxazol]-2′-amine]
IC50 [1, 4]: 58.1 nM | IC50 [2]: 3.9 nM

Cc1cc(-c2ccc3c(c2)[C@@]2(COC(N)=N2)c2cc(C4=CCOCC4)ncc2O3)ccc1F [Example 551, (5S)-3-(3,6-dihydro-2H-pyran-4-yl)-7-(4-fluoro-3-methylphenyl)spiro[chromeno[2,3-c]pyridine-5,4′-[1,3]oxazol]-2′-amine]
IC50 [1, 3]: 80.7 nM | IC50 [2]: 3.4 nM

NC1=N[C@@]2(CO1)c1cc(OCc3ccccc3Br)ccc1Oc1ncc(-c3cccnc3)cc12 [Example 978, (5S)-7-((2-bromobenzyl)oxy)-3-(3-pyridinyl)spiro[chromeno[2,3-b]pyridine-5,4′-[1,3]oxazol]-2′-amine]
IC50 [1, 4]: 334 nM | IC50 [2]: 50.7 nM

CC1(C#Cc2cnc3c(c2)[C@]2(CSC(N)=N2)c2cc(-c4cncc(F)c4)ccc2O3)COC1 [Example 964, (5S)-7-(5-fluoro-3-pyridinyl)-3-((3-methyl-3-oxetanyl)ethynyl)spiro[chromeno[2,3-b]pyridine-5,4′-[1,3]thiazol]-2′-amine]
IC50 [1, 3]: 15 nM | IC50 [2]: 0.9 nM

CC1(C)C[C@@H](c2cnc3c(c2)[C@]2(COC(N)=N2)c2cc(-c4cccc(Cl)c4)ccc2O3)CCO1 [Example 474, (5S)-7-(3-chlorophenyl)-3-((4S)-2,2-dimethyltetrahydro-2H-pyran-4-yl)spiro[chromeno[2,3-b]pyridine-5,4′-[1,3]oxazol]-2′-amine]
IC50 ([1]; average IC50, HEK cells): 9.4 nM | IC50 [2]: 0.9 nM

CC(C)(C#N)COc1cc(F)c2c(c1)[C@]1(COC(N)=N1)c1cc(-c3cccnc3F)c(F)cc1O2 [Example 862, 3-(((4S)-2-amino-4′,6′-difluoro-7′-(2-fluoro-3-pyridinyl)spiro[1,3-oxazole-4,9′-xanthen]-2′-yl)oxy)-2,2-dimethylpropanenitrile]
IC50 [1, 3]: 11 nM | IC50 [2]: 0.3 nM

CC(C)(C)C#Cc1cnc2c(c1)[C@]1(CSC(N)=N1)c1cc(-c3cncnc3)ccc1O2 [Example 629, (5S)-3-(3,3-dimethyl-1-butyn-1-yl)-7-(5-pyrimidinyl)spiro[chromeno[2,3-b]pyridine-5,4′-[1,3]thiazol]-2′-amine]
IC50 [1, 3]: 7 nM | IC50 [2]: 0.6 nM
